From US3972872A, “6-[α-(ω-Guanidinoalkanoylamido)acylamido]penicillanic acids” (Pfizer Inc., priority 1975, dated 1976)
≈ marks a conversion by molar mass, not a printed value. Structures can show the parent of a compound that is named as a salt. Where two headings read alike, the source gives them in different places. Each block holds one compound with its values, some of them ahead of it.

Tests used:
[1] = system: Pseudo. aeruginosa 490; assay: In vitro MIC, Pseudo. aeruginosa 490; assay type: cell-based, Pseudomonas aeruginosa; conditions: unit assumed
Description: (§1) The in vitro spectra of a number of 6-[α-(ω-guanidinoalkanoylamido)acylamido]penicillanic acids of this invention against certain gram-negative bacteria are presented in Table I below. […] Th compounds of Table I have the formula

[2] = system: Escherichia coli 266; assay: In vivo protection of mice versus Escherichia coli 266; conditions: Escherichia coli, 266, sc, 96 h, read-out: % Protection
Description: (§2) Additionally, the compounds of this invention are active versus gram-positive and gram-negative bacteria in vivo via the parenteral route of administration in animals, including man. Their in vivo activity in animals, including man, by the oral route of administration is more limited as regards susceptible organisms. Nevertheless, oral in vivo activity against Escherichia coli and Staphylococcus aureus is a common property of many compounds of this invention. Table II below presents the comparative in vivo spectra of several compounds within the scope of this invention against D-α-aminobenzylpenicillin (Ampicillin).
(§3) The acute systemic infections in mice were produced by the intraperitoneal inoculation of standardized cultures suspended in 5% hog gastric mucin. Treatment with the drugs was initiated 0.5 hours after inoculation of the infecting organism. A second dose was administered 4 hours later. The PD50 values were calculated after a hold period of 4 days.

[3] = system: Proteus mirabilis C015; assay: In vitro MIC, Proteus mirabilis C015; assay type: cell-based; conditions: unit assumed
Description: as §1

[4] = Serum levels in dogs, single intramuscular dose; conditions: for Serum Levels: intramuscular 25 mg./kg.
[5] = system: Proteus vulgaris A059; assay: In vitro MIC, Proteus vulgaris A059; assay type: cell-based; conditions: unit assumed
Description: as §1

[6] = system: Serratia marcescens A001; assay: In vitro MIC, Serratia marcescens A001; assay type: cell-based; conditions: unit assumed
Description: as §1

[7] = system: Proteus mirabilis C020; assay: In vitro MIC, Proteus mirabilis C020; assay type: cell-based; conditions: unit assumed
Description: (§4) The in vitro activity of the herein-described compounds renders them useful for topical application in the form of ointments, creams and the like, or for sterilization purposes, e.g., sick room utensils.
as §1

[8] = system: P. aeruginosa; assay: PD50 versus acute systemic P. aeruginosa infection in mice; assay type: in vivo; conditions: for ED50: Pseudomonas aeruginosa, 96 h, read-out: PD50
Description: as §2, §3

[9] = system: S. aureus; assay: PD50 versus acute systemic S. aureus infection in mice; assay type: in vivo; conditions: for ED50: Staphylococcus aureus, 96 h, S. aureus, mice
Description: as §2, §3

[10] = system: E. coli; assay: PD50 versus acute systemic E. coli infection in mice; assay type: in vivo; conditions: for ED50: Escherichia coli, 96 h, E. coli, mice
Description: as §2, §3

[11] = system: E. coli 266; assay: In vitro MIC, E. coli 266, two-fold serial dilution; assay type: cell-based, Escherichia coli; conditions: unit assumed
Description: as §1

[12] = system: Proteus rettgeri B006; assay: In vitro MIC, Proteus rettgeri B006; assay type: cell-based; conditions: unit assumed
Description: as §4, §1

[13] = system: Pseudo. aeruginosa 104; assay: In vitro MIC, Pseudo. aeruginosa 104; assay type: cell-based, Pseudomonas aeruginosa; conditions: unit assumed
Description: as §1

[14] = Urine levels and urinary recovery in dogs, single intramuscular dose
[15] = system: Pseudo. aeruginosa 173; assay: In vitro MIC, Pseudo. aeruginosa 173; assay type: cell-based, Pseudomonas aeruginosa; conditions: unit assumed
Description: as §1

[16] = 50 mg./kg., mice, subcutaneous route

SMILES: CC1(C)S[C@@H]2[C@H](NC(=O)[C@H](NC(=O)CNC(=N)N)c3ccccc3)C(=O)N2[C@H]1C(=O)O [A, 6-[D-2-Phenyl-2-(Guanidinoacetamido)Acetamido]Penicillanic Acid]
- MIC [1]: 1.56 µg/mL (≈ 3.48 µM)
- responders at 50 mg/kg [2]: 100%
- MIC [3]: 1.56 µg/mL (≈ 3.48 µM)
- concentration at 1 h ([4]; dog, serum, im, 0.05 mg/kg): 78 µg/mL
- concentration at 2 h ([4]; dog, serum, im, 0.05 mg/kg): 48 µg/mL
- concentration at 0.5 h ([4]; dog, serum, im, 25 mg/kg): 30.4 µg/mL
- concentration at 1 h ([4]; dog, serum, im, 25 mg/kg): 26.2 µg/mL
- concentration at 2 h ([4]; dog, serum, im, 25 mg/kg): 10.3 µg/mL
- concentration at 3 h ([4]; dog, serum, im, 25 mg/kg): 2.1 µg/mL
- Serum Levels ([4]; dogs, 0 hours): 0 ng/mL
- Serum Levels ([4]; dogs, 4 hours): 0 ng/mL
- Serum Levels ([4]; dogs, 6 hours): 0 ng/mL
- blood levels of drug compared with [B] (in words) ([4]; parenteral, dogs): clearly superior
- MIC [5]: 1.56 µg/mL (≈ 3.48 µM)
- MIC [6]: 6.25 µg/mL (≈ 13.9 µM)
- MIC [7]: 1.56 µg/mL (≈ 3.48 µM)
- ED50 ([8]; po): > 200 mg/kg
- ED50 ([8]; sc): 41 ± 13 mg/kg
- activity against Pseudomonas aeruginosa (in words) ([8]; in vivo, mice): active
- ED50 ([9]; oral): 68 mg/kg
- ED50 ([9]; sc, subcutaneous): 13 ± 3.9 mg/kg
- in vivo oral activity against S. aureus (in words) ([9]; oral): dual in vivo activity
- ED50 ([10]; oral): 50 mg/kg
- ED50 ([10]; sc, subcutaneous): 6 mg/kg
- in vivo oral activity against E. coli (in words) ([10]; oral): dual in vivo activity
- MIC [11]: 1.56 µg/mL (≈ 3.48 µM)
- MIC [12]: 12.5 µg/mL (≈ 27.9 µM)
- MIC [13]: 1.56 µg/mL (≈ 3.48 µM)
- concentration at 0.5 h ([14]; dog, urine, im, 25 mg/kg): 366 µg/mL
- concentration at 1 h ([14]; dog, urine, im, 25 mg/kg): 710 µg/mL
- concentration at 2 h ([14]; dog, urine, im, 25 mg/kg): 1020 µg/mL
- concentration at 3 h ([14]; dog, urine, im, 25 mg/kg): 554 µg/mL
- concentration at 4 h ([14]; dog, urine, im, 25 mg/kg): 219 µg/mL
- concentration at 5 h ([14]; dog, urine, im, 25 mg/kg): 130 µg/mL
- dose excreted ([14]; dog, urine, im, 25 mg/kg): 35.4%
- Concentrations in Urine ([14]; dogs, intramuscular 25 mg./kg., 0 hours): 0 ng/mL
- total urinary recovery of drug compared with [B] (in words) ([14]; parenteral, dogs): clearly superior
- MIC [15]: 1.56 µg/mL (≈ 3.48 µM)

- MIC [1]: 1.56 µg/mL (≈ 3.1 µM)
- MIC [3]: 3.12 µg/mL (≈ 6.21 µM)
- MIC [5]: 6.25 µg/mL (≈ 12.4 µM)
- MIC [6]: 6.25 µg/mL (≈ 12.4 µM)
- MIC [11]: 6.25 µg/mL (≈ 12.4 µM)
- MIC [13]: 12.5 µg/mL (≈ 24.9 µM)
- MIC [15]: 6.25 µg/mL (≈ 12.4 µM)
SMILES: CC1(C)S[C@@H]2[C@H](NC(=O)[C@H](NC(=O)C3CCCN(C(=N)N)C3)c3ccccc3)C(=O)N2[C@H]1C(=O)O (some centres unmarked) [C(NH)NH2, R=H]
- responders at 50 mg/kg [2, 16]: 80%

SMILES: CC1(C)S[C@@H]2[C@H](NC(=O)[C@H](NC(=O)CN3CCNC3=N)c3ccccc3)C(=O)N2[C@H]1C(=O)O [CH2 --N--C(NH)--NHCH2 CH2, R=H]
- MIC [1]: 3.12 µg/mL (≈ 6.57 µM)
- responders at 50 mg/kg [2]: 100%
- MIC [3]: 3.12 µg/mL (≈ 6.57 µM)
- MIC [5]: 6.25 µg/mL (≈ 13.2 µM)
- MIC [6]: 12.5 µg/mL (≈ 26.3 µM)
- MIC [11]: 6.25 µg/mL (≈ 13.2 µM)
- MIC [13]: 12.5 µg/mL (≈ 26.3 µM)
- MIC [15]: 12.5 µg/mL (≈ 26.3 µM)

SMILES: CNC(=N)NCC(=O)N[C@@H](C(=O)N[C@@H]1C(=O)N2[C@@H]1SC(C)(C)[C@@H]2C(=O)O)c1ccccc1 [CH2 --NH--C(NH)NHCH3, R=H]
- MIC [1]: 0.78 µg/mL (≈ 1.69 µM)
- responders at 50 mg/kg [2]: 100%
- MIC [3]: 1.56 µg/mL (≈ 3.37 µM)
- MIC [5]: 3.12 µg/mL (≈ 6.75 µM)
- MIC [6]: 3.12 µg/mL (≈ 6.75 µM)
- MIC [11]: 1.56 µg/mL (≈ 3.37 µM)
- MIC [13]: 1.56 µg/mL (≈ 3.37 µM)
- MIC [15]: 3.12 µg/mL (≈ 6.75 µM)

- MIC [1]: 3.12 µg/mL (≈ 6.75 µM)
- MIC [3]: 0.78 µg/mL (≈ 1.69 µM)
- MIC [5]: 3.12 µg/mL (≈ 6.75 µM)
- MIC [6]: 6.25 µg/mL (≈ 13.5 µM)
- MIC [7]: 12.5 µg/mL (≈ 27 µM)
- MIC [11]: 3.12 µg/mL (≈ 6.75 µM)
- MIC [12]: 50 µg/mL (≈ 108 µM)
- MIC [13]: 6.25 µg/mL (≈ 13.5 µM)
- MIC [15]: 3.12 µg/mL (≈ 6.75 µM)
SMILES: CC1(C)S[C@@H]2[C@H](NC(=O)[C@H](NC(=O)CCNC(=N)N)c3ccccc3)C(=O)N2[C@H]1C(=O)O [CH2 CH2 NH--C(NH)NH2, R=H, 6-[D-2-Phenyl-2-(Guanidinopropionamido)Acetamido]Penicillanic Acid]
- responders at 50 mg/kg [2, 16]: 70%

- MIC [1]: 6.25 µg/mL
- MIC [3]: 0.39 µg/mL
- MIC [11]: 6.25 µg/mL
SMILES: CC(C)(C)C(=O)OCOC(=O)[C@@H]1N2C(=O)[C@@H](NC(=O)[C@H](NC(=O)CCNC(=N)N)c3ccccc3)[C@H]2SC1(C)C [CH2 CH2 NH--C(NH)NH2, R=POM, Hydrochloride]
- responders at 50 mg/kg [2, 16]: 100%

SMILES: CN(CC(=O)N[C@@H](C(=O)N[C@@H]1C(=O)N2[C@@H]1SC(C)(C)[C@@H]2C(=O)O)c1ccccc1)C(=N)N [CH2 N(CH3)--C(NH)NH2, R=H, 6-{D-2-Phenyl-2-[(1-Methylguanidino)Acetamido]Acetamido}-Penicillanic Acid]
- MIC [1]: 3.12 µg/mL (≈ 6.75 µM)
- responders at 50 mg/kg [2]: 60%
- MIC [3]: 6.25 µg/mL (≈ 13.5 µM)
- MIC [5]: 6.25 µg/mL (≈ 13.5 µM)
- MIC [6]: 3.12 µg/mL (≈ 6.75 µM)
- MIC [7]: 6.25 µg/mL (≈ 13.5 µM)
- MIC [11]: 6.25 µg/mL (≈ 13.5 µM)
- MIC [12]: 100 µg/mL (≈ 216 µM)
- MIC [13]: 50 µg/mL (≈ 108 µM)
- MIC [15]: 12.5 µg/mL (≈ 27 µM)
